Test results published in US5859257A, “Isoxazole compounds as cyclooxygenase inhibitors” (G. D. Searle & Co., priority 1996, dated 1999).

How the values were obtained:
rat paw edema = experiment: Rat Carrageenan Foot Pad Edema Test; type: in vivo, Male Sprague-Dawley rats; settings: oral, 3 h after carrageenan
Protocol: Rat Carrageenan Foot Pad Edema Test
Male Sprague-Dawley rats were selected in each group so that the average body weight was as close as possible. Rats were fasted with free access to water for over sixteen hours prior to the test. […] One hour later a subplantar injection of 0.1 mL of 1% solution of carrageenan/sterile 0.9% saline was administered and the volume of the injected foot was measured with a displacement plethysmometer connected to a pressure transducer with a digital indicator. Three hours after the injection of the carrageenan, the volume of the foot was again measured.

[1] = tested on: hyperalgesic foot withdrawal (rat); experiment: Rat Carrageenan-induced Analgesia Test; type: in vivo, Male Sprague-Dawley rats; settings: oral, 3 h after carrageenan
Protocol: Rat Carrageenan-induced Analgesia Test
Male Sprague-Dawley rats were treated as previously described for the Carrageenan Foot Pad Edema test. Three hours after the injection of the carrageenan, the rats were placed in a special plexiglass container with a transparent floor having a high intensity lamp as a radiant heat source, positionable under the floor. After an initial twenty minute period, thermal stimulation was begun on either the injected foot or on the contralateral uninjected foot. A photoelectric cell turned off the lamp and timer when light was interrupted by paw withdrawal. The time until the rat withdraws its foot was then measured. The withdrawal latency in seconds was determined for the control and drug-treated groups, and percent inhibition of the hyperalgesic foot withdrawal determined.

COX-2 = experiment: Evaluation of COX-2 activity in vitro (PGE2 ELISA, recombinant enzyme); type: biochemical, human or murine; settings: arachidonic acid 10 μM, pH 8.0, pre-incubation 10-20 minutes
Protocol: The COX-2 inhibition activity of the compounds of this invention illustrated in the Examples was determined by the following methods.
(§1) a. Preparation of recombinant COX baculoviruses
(§2) Recombinant COX-1 and COX-2 were prepared as scribed by Gierse et al, [J. Biochem., 305, 479-84 (1995)]. […] Recombinant baculoviruses were isolated by transfecting 4 μg of baculovirus transfer vector DNA into SF9 insect cells (2×10^8) along with 200 ng of linearized baculovirus plasmid DNA by the calcium phosphate method. See M. D. Summers and G. E. Smith, A Manual of Methods for Baculovirus Vectors and Insect Cell Culture Procedures, Texas Agric. Exp. Station Bull. 1555 (1987). Recombinant viruses were purified by three rounds of plaque purification and high titer (10^7 -10^8 pfu/mL) stocks of virus were prepared. For large scale production, SF9 insect cells were infected in 10 liter fermentors (0.5×10^6 /mL) with the recombinant baculovirus stock such that the multiplicity of infection was 0.1. After 72 hours the cells were centrifuged and the cell pellet homogenized in Tris/Sucrose (50 mM: 25%, pH 8.0) containing 1% 3-[(3-cholamidopropyl)dimethylammonio]-1-propanesulfonate (CHAPS). The nomogenate was centrifuged at 10,000×G for 30 minutes, and the resultant supernatant was stored at -80° C. before being assayed for COX activity.
(§3) COX activity was assayed as PGE2 formed/μg protein/time using an ELISA to detect the prostaglandin released. CHAPS-solubilized insect cell membranes containing the appropriate COX enzyme were incubated in a potassium phosphate buffer (50 mM, pH 8.0) containing epinephrine, phenol, and heme with the addition of arachidonic acid (10 μM). […] Any reaction between the arachidonic acid and the enzyme was stopped after ten minutes at 37° C./room temperature by transferring 40 μl of reaction mix into 160 μl ELISA buffer and 25 μM indomethacin. The PGE2 formed was measured by standard ELISA technology (Cayman Chemical).

COX-1 = experiment: Evaluation of COX-1 activity in vitro (PGE2 ELISA, recombinant enzyme); type: biochemical, human or murine; settings: arachidonic acid 10 μM, pH 8.0, pre-incubation 10-20 minutes
Protocol: as §1, §2, §3

Row | SMILES | IC50 (COX-2) [µM] | IC50 (COX-1) [µM] | RAT PAW EDEMA % Inhibition (rat paw edema; @ 10 mg/kg body weight) [%] | ANALGESIA % Inhibition ([1]; @ 10 mg/kg body weight) [%] | ANALGESIA % Inhibition ([1]; *@ 30 mg/kg) [%] | RAT PAW EDEMA % Inhibition (rat paw edema; *@ 30 mg/kg) [%]
1 | Cc1onc(-c2ccccc2)c1-c1ccc(S(N)(=O)=O)cc1 [Example 1, 4-[5-Methyl-3-phenylisoxazol-4-yl]benzenesulfonamide] |  |  | 29 | 33 |  | 
2 | NS(=O)(=O)c1ccc(-c2c(-c3ccccc3)noc2CO)cc1 [Example 10, 4-[5-Hydroxymethyl-3-phenylisoxazol-4-yl]benzenesulfonamide] |  | > 100 | 57 | 74 |  | 
3 | COc1ccc(-c2noc(C(F)F)c2-c2ccc(S(N)(=O)=O)cc2)cc1F [Example 44, 4-[5-Difluoromethyl-3-(3-fluoro-4-methoxyphenyl)isoxazol-4-yl]benzenesulfonamide] | 1.7 | > 100 |  |  |  | 
4 | Cc1ccc(-c2noc(C(F)F)c2-c2ccc(S(N)(=O)=O)cc2)cc1 [Example 46, 4-[5-Difluoromethyl-3-(4-methylphenyl)isoxazol-4-yl]benzenesulfonamide] | 0.5 | 100 |  |  |  | 
5 | Cc1onc(-c2cccc(Cl)c2)c1-c1ccc(S(N)(=O)=O)cc1 [Example 48, 4-[3-(3-Chlorophenyl)-5-methylisoxazol-4-yl]benzenesulfonamide] | 0.3 | 93 |  |  |  | 
6 | NS(=O)(=O)c1ccc(-c2c(-c3ccccc3)noc2COc2ccc(C(=O)O)cc2)cc1 [Example 51, 4-[[4-[4-(Aminosulfonyl)phenyl]-3-phenylisoxazol-5-yl]methoxy]benzoic acid] | 19 | > 100 |  |  |  | 
7 | NS(=O)(=O)c1ccc(-c2c(-c3ccccc3)noc2CC(=O)C(F)(F)F)cc1 [Example 52, 4-[3-Phenyl-5-(3,3,3-trifluoro-2-oxopropyl)isoxazol-4-yl]benzenesulfonamide] | 0.2 | 93 |  |  |  | 
8 | CCc1noc(-c2ccccc2C)c1-c1ccc(S(N)(=O)=O)cc1 [Example 54, 4-[3-Ethyl-5-(2-methylphenyl)isoxazol-4-yl]benzenesulfonamide] | 1.8 | > 100 |  |  |  | 
9 | CC(C)(O)COCc1onc(-c2ccccc2)c1-c1ccc(S(N)(=O)=O)cc1 [Example 56, 4-[5-(2-Methyl-2-hydroxy-1-n-propyloxymethyl)-3-phenylisoxazol-4-yl]benzenesulfonamide] | 0.2 | > 100 |  |  | 27 | 29
10 | CC(C)(O)CCCc1onc(-c2ccccc2)c1-c1ccc(S(N)(=O)=O)cc1 [Example 57, 4-[5-(4-Hydroxy-4-methylpentyl)-3-phenylisoxazol-4-yl]benzenesulfonamide] | 0.1 | > 100 |  |  | 5 | 23
11 | NS(=O)(=O)c1ccc(-c2c(-c3ccccc3)noc2COCCO)cc1 [Example 60, 4-[5-(2-Hydroxyethyl)oxymethyl-3-phenylisoxazol-4-yl]benzenesulfonamide] | 0.2 | > 100 |  |  |  | 
12 | CS(=O)(=O)c1ccc(-c2c(-c3ccccc3)noc2CO)cc1 [Example 61, 5-Hydroxymethyl-4-(4-methylsulfonyl)phenyl-3-phenyl-isoxazole] | 0.2 | > 100 |  |  |  | 
13 | NS(=O)(=O)c1ccc(-c2c(-c3ccccc3)noc2CCO)cc1 [Example 66, 4-[5-(2-Hydroxyethyl)-3-phenylisoxazol-4-yl]benzenesulfonamide] | < 0.1 | > 100 |  |  | 49 | 43
14 | Cc1onc(-c2ccc(Cl)c(Cl)c2)c1-c1ccc(S(N)(=O)=O)cc1 [Example 67, 4-[5-Methyl-3-(3,4-dichlorophenyl)isoxazol-4-yl]benzenesulfonamide] | 0.3 | 36 |  |  |  | 
15 | Cc1onc(-c2ccc(Cl)c(Cl)c2C(=O)O)c1-c1ccc(S(N)(=O)=O)cc1 [Example 68, 6-[4-[4-(aminosulfonyl)phenyl]-5-methylisoxazol-3-yl]-2,3-dichlorobenzoic acid] | 0.4 | > 100 |  |  |  | 

The next lines start with results.

Row | IC50 (COX-2) [µM] | IC50 (COX-1) [µM] | SMILES | RAT PAW EDEMA % Inhibition (rat paw edema; @ 10 mg/kg body weight) [%] | ANALGESIA % Inhibition ([1]; @ 10 mg/kg body weight) [%] | ANALGESIA % Inhibition ([1]; *@ 30 mg/kg) [%] | RAT PAW EDEMA % Inhibition (rat paw edema; *@ 30 mg/kg) [%]
16 | < 0.1 | > 100 | NS(=O)(=O)c1ccc(-c2c(-c3ccccc3)noc2C(F)F)cc1 [Example 1j, 4-[5-difluoromethyl-3-phenylisoxazol-4-yl]benzenesulfonamide] | 37 | 28 |  | 
17 | < 0.1 | 100 | CCc1noc(-c2ccccc2)c1-c1ccc(S(N)(=O)=O)cc1 [Example 14, 4-[3-Ethyl-5-phenylisoxazol-4-yl]benzenesulfonamide] |  |  | 27 | 
18 | < 0.1 | 16 | COc1ccc(-c2noc(C(F)F)c2-c2ccc(S(N)(=O)=O)cc2)cc1 [Example 45, 4-[5-Difluoromethyl-3-(4-methoxyphenyl)isoxazol-4-yl]benzenesulfonamide] |  |  |  | 
19 | < 0.1 | > 100 | CS(=O)(=O)c1ccc(-c2c(-c3ccccc3)noc2C(F)F)cc1 [Example 47, 5-Difluoromethyl-4-(4-methylsulfonylphenyl)-3-phenylisoxazole] | 24 |  |  | 
20 | < 0.1 | > 100 | COC(=O)c1ccc(OCc2onc(-c3ccccc3)c2-c2ccc(S(N)(=O)=O)cc2)cc1 [Example 50, Methyl 4-[[4-[4-(aminosulfonyl)phenyl]-3-phenylisoxazol-5-yl]methoxy]benzoate] |  |  |  | 
21 | < 0.1 | > 100 | NS(=O)(=O)c1ccc(-c2c(-c3cccc(F)c3)noc2CC(=O)O)cc1 [Example 55, [4-(4-Aminosulfonylphenyl)-3-(3-fluorophenyl)isoxazol-5-yl]acetic acid] |  |  |  | 
22 | < 0.1 | 14 | CSc1onc(-c2ccccc2)c1-c1ccc(S(N)(=O)=O)cc1 [Example 58, 4-[5-Methylthio-3-phenylisoxazol-4-yl]benzenesulfonamide] |  |  |  | 
23 | < 0.1 | > 100 | C[S+]([O-])c1onc(-c2ccccc2)c1-c1ccc(S(N)(=O)=O)cc1 (stereo not drawn) [Example 59, 4-[5-Methylsulfinyl-3-phenylisoxazol-4-yl]benzenesulfonamide] |  |  |  | 
